Measured values taken from patent publication US20210112813A1, “HERBICIDAL COMPOSITION AND USE THEREOF” (NANTONG JIANGSHAN AGROCHEMICAL & CHEMICALS CO., LTD., priority 2019, published 2021).

Experiments:
Format in all cases: in vivo
Abutilon [1] = test: Greenhouse pot test, pre-emergence soil treatment, visual control effect 30 days after treatment, Gowing method
Experimental: (§1) In the present application, indoor combined action of the compound of herbicide active component A and B on weeds was measured to determine the combined effect of the composition on weeds, wherein the structure of the active component A was as follows:
(§2) The weed cultivation method was as follows: quantitative weed seeds abutilon and bristlegrass were respectively sown in a paper cup filled with nutrient soil with a diameter of 7 cm, and then cultivated in the greenhouse after covering the soil, suppressing and watering. The post-emergence stem and leaf treatment was performed when the grass weeds grew to 5-7 leaf stage, broad-leaved weeds grew to 6-8 leaf stage; the pre-emergence soil treatment was performed the second day after sowing, and the early post-emergence treatment was performed after sowing and before emergence; the experiment was repeated 3 times. After the treatment and drug solution naturally dried, the weeds were placed in the greenhouse to be managed according to conventional methods. According to the suppression or death of the weeds, a visual control effect investigation was conducted 30 days after the treatment. The application adopted the Gowing method to evaluate the combined effect of the proposed composition.
(§3) X—Weed control effect when the amount of herbicide component A is P;
(§4) Y—Weed control effect when the amount of herbicide component B is Q;
(§5) E0—Theoretical control effect when the amount of herbicide component A is […];
(§6) E—The measured control effect after the herbicide component A and the herbicide component B are mixed according to the above ratio.
(§7) When E−E0>10%, it is synergism; when E−E0<−10%, it is antagonism; when E−E0 value is between ±10%, it is addition.

Bristlegrass [2] = test: as above
Experimental: as §1, §2, §3, §4, §5, §6, §7

Lambsquarters [3] = test: as above
Eclipta alba = test: as above
Abutilon [4] = test: Greenhouse pot test, post-emergence stem and leaf treatment, visual control effect 30 days after treatment, Gowing method
Experimental: as §1, §2, §3, §4, §5, §6, §7

Bristlegrass [5] = test: as above
Experimental: as §1, §2, §3, §4, §5, §6, §7

Bristlegrass [6] = test: Greenhouse pot test (treatment timing not given, Tables 6 and 7), visual control effect, Gowing method
Experimental: as §1, §2, §3, §4, §5, §6, §7

Abutilon [7] = test: Greenhouse pot test (treatment timing not given, Table 6), visual control effect, Gowing method
Experimental: as §1, §2, §3, §4, §5, §6, §7

Amaranthusretroflexus [8] = test: Greenhouse pot test (treatment timing not given, Table 7), visual control effect, Gowing method
Abutilon [9] = test: Example 12 indoor pot experiment, stem and leaf spray, visual control effect 30 days after treatment, Gowing method
Experimental: (§8) The combined effect of the composition on the weeds was clarified by the indoor pot experiment.
(§9) The weed cultivation and test material cultivation method was as follows: quantitative weed seeds abutilon and bristlegrass were respectively sown in a paper cup filled with nutrient soil with a diameter of 7 cm, and then cultivated in the greenhouse after covering the soil, suppressing and watering. The stem and leaf spray treatment was performed when the grass weeds grew to 5-7 leaf stage, and broad-leaved weeds grew to 6-8 leaf stage; the tests were repeated for 3 times. the treatment and drug solution naturally dried, the weeds were placed in the greenhouse to be managed according to conventional methods. According to the suppression or death of the weeds, a visual control effect investigation was conducted 30 days after the treatment.
(§10) The application adopted the Gowing method to evaluate the combined effect of the proposed composition.
as §3, §4, §5, §6, §7

Bristlegrass [10] = test: as above
Experimental: as §8, §9, §10, §3, §4, §5, §6, §7

[11] = system: Horseweed herb (collected from Shenyang, Liaoning); test: Example 13 combined effect on weeds, Gowing method
Experimental: as §9, §10, §3, §4, §5, §6, §7
(§11) The test targets were horseweed herb collected from Shenyang, Liaoning and goosegrass collected from Zhengzhou, Henan.

[12] = system: goosegrass (collected from Zhengzhou, Henan); test: Example 13 combined effect on weeds, Gowing method
Experimental: as §9, §10, §3, §4, §5, §6, §7, §11

Abutilon [13] = test: Example 15 indoor pot planting, death rate / herbicidal speed, weeds in 6-leaf stage
Experimental: (§12) The death rate of weeds after application of the herbicidal composition of the present application was measured and compared with the herbicidal rate when a single component was used. The test used the method of indoor pot planting. At the time of treatment, abutilon and barnyardgrass were in 6-leaf stage.

Echinochloacrusgalli = test: as above
Experimental: as §12

Amaranthusretroflexus [14] = test: Field plot test, non-cultivated weeds, pre-emergence soil treatment; details: Table 8, dose 600 ga.i./hm^2
Experimental: (§13) The present application also conducted a medicinal efficacy test on weeds on the formulation examples containing herbicide active component A and active component B by the field plot test method, and clarified the control effect of the composition on non-cultivated weeds.
(§14) According to the different components of different formulation examples, pre-emergence soil treatment, early post-emergence and post-emergence stem and leaf spray treatment were carried out respectively. The spraying device was Singapore Linong HD400 hand-operating knapsack sprayer (No. H17001), working pressure: […], spray rate: 640 mL/min, adjustable cone spraying nozzle (325787), spraying nozzle height: 0.5 m, spray width: 0.85 m, walking speed: about 16.7 m/min, and spray volume: […];

Bristlegrass [15] = test: as above; details: Table 8, dose 600 ga.i./hm^2
Experimental: as §13, §14

Crabgrass = test: as above; details: Table 8, dose 600 ga.i./hm^2
Experimental: as §13, §14

Lambsquarters [16] = test: as above; details: Table 8, dose 600 ga.i./hm^2
Experimental: as §13, §14

[17] = Example 12 Table 1, dose 3.75 ga.i./hm^2
[18] = Example 12 Table 1, dose 7.5 ga.i./hm^2
[19] = Example 12 Table 1, dose 15 ga.i./hm^2
[20] = Example 12 Table 1, dose 30 ga.i./hm^2
[21] = Example 13 Table 2, dose 3.75 ga.i./hm^2
[22] = Example 13 Table 2, dose 7.5 ga.i./hm^2
[23] = Example 13 Table 2, dose 15 ga.i./hm^2
[24] = Example 13 Table 2, dose 30 ga.i./hm^2
[25] = Table 11, 7 days after treatment, dose 15 ga.i./hm^2
[26] = Table 11, 7 days after treatment, dose 30 ga.i./hm^2
[27] = Table 11, 7 days after treatment, dose 60 ga.i./hm^2
[28] = Table 11, 7 days after treatment, dose 120 ga.i./hm^2
[29] = Table 11, 15 days after treatment, dose 15 ga.i./hm^2
[30] = Table 11, 15 days after treatment, dose 30 ga.i./hm^2
[31] = Table 11, 15 days after treatment, dose 60 ga.i./hm^2
[32] = Table 11, 15 days after treatment, dose 120 ga.i./hm^2
[33] = Table 11, 30 days after treatment, dose 15 ga.i./hm^2
[34] = Table 11, 30 days after treatment, dose 30 ga.i./hm^2
[35] = Table 11, 30 days after treatment, dose 60 ga.i./hm^2
[36] = Table 11, 30 days after treatment, dose 120 ga.i./hm^2

CCOC(=O)C1(C)CC(c2cc(-n3c(=O)cc(C(F)(F)F)n(C)c3=O)c(F)cc2Cl)=NO1 (stereo not shown) [active component A, 3-(2-chloro-4-fluoro-5-(3-methyl-2,6-dioxo-4-trifluoromethyl-3,6-dihydropyrimidine-1(2H)-yl)phenyl)-5-methyl-4,5-dihydroisoxazole-5-carboxylic acid ethyl ester]
Measured value E (Abutilon [1]; Table 4, dose 15 ga.i./hm^2): 5%
Measured value E (Abutilon [1]; Table 4, dose 30 ga.i./hm^2): 20%
Measured value E (Bristlegrass [2]; Table 1, dose 7.5 ga.i./hm^2): 0%
Measured value E (Bristlegrass [2]; Table 1, dose 15 ga.i./hm^2): 15%
Measured value E (Bristlegrass [2]; Table 2, dose 15 ga.i./hm^2): 10%
Measured value E (Bristlegrass [2]; Table 2, dose 22.5 ga.i./hm^2): 25%
Measured value E (Bristlegrass [2]; Table 3, dose 7.5 ga.i./hm^2): 0%
Measured value E (Bristlegrass [2]; Table 3, dose 15 ga.i./hm^2): 10%
Measured value E (Bristlegrass [2]; Table 4, dose 15 ga.i./hm^2): 10%
Measured value E (Bristlegrass [2]; Table 4, dose 30 ga.i./hm^2): 15%
Measured value E (Lambsquarters [3]; Table 1, dose 7.5 ga.i./hm^2): 5%
Measured value E (Lambsquarters [3]; Table 1, dose 15 ga.i./hm^2): 20%
Measured value E (Lambsquarters [3]; Table 2, dose 15 ga.i./hm^2): 15%
Measured value E (Lambsquarters [3]; Table 2, dose 22.5 ga.i./hm^2): 25%
Measured value E (Eclipta alba; Table 3, dose 7.5 ga.i./hm^2): 0%
Measured value E (Eclipta alba; Table 3, dose 15 ga.i./hm^2): 10%
Measured value E (Abutilon [4]; Table 5, dose 7.5 ga.i./hm^2): 10%
Measured value E (Abutilon [4]; Table 5, dose 15 ga.i./hm^2): 15%
Measured value E (Bristlegrass [5]; Table 5, dose 7.5 ga.i./hm^2): 5%
Measured value E (Bristlegrass [5]; Table 5, dose 15 ga.i./hm^2): 10%
Measured value E (Bristlegrass [6]; Table 6, dose 15 ga.i./hm^2): 10%
Measured value E (Bristlegrass [6]; Table 6, dose 60 ga.i./hm^2): 35%
Measured value E (Bristlegrass [6]; Table 7, dose 15 ga.i./hm^2): 20%
Measured value E (Bristlegrass [6]; Table 7, dose 30 ga.i./hm^2): 50%
Measured value E (Abutilon [7]; dose 15 ga.i./hm^2): 35%
Measured value E (Abutilon [7]; dose 60 ga.i./hm^2): 45%
Measured value E (Amaranthusretroflexus [8]; dose 15 ga.i./hm^2): 20%
Measured value E (Amaranthusretroflexus [8]; dose 30 ga.i./hm^2): 65%
Measured value E (Abutilon [9]; [17]): 10%
Measured value E (Abutilon [9]; [18]): 25%
Measured value E (Abutilon [9]; [19]): 40%
Measured value E (Abutilon [9]; [20]): 55%
Measured value E (Bristlegrass [10]; [17]): 5%
Measured value E (Bristlegrass [10]; [18]): 10%
Measured value E (Bristlegrass [10]; [19]): 15%
Measured value E (Bristlegrass [10]; [20]): 25%
Measured value E [11, 21]: 10%
Measured value E [11, 22]: 30%
Measured value E [11, 23]: 35%
Measured value E [11, 24]: 55%
Measured value E [12, 21]: 5%
Measured value E [12, 22]: 15%
Measured value E [12, 23]: 30%
Measured value E [12, 24]: 45%
Control effect (visual observation %) (Abutilon [13]; [25]): 46.0%
Control effect (visual observation %) (Abutilon [13]; [26]): 68.1%
Control effect (visual observation %) (Abutilon [13]; [27]): 82.4%
Control effect (visual observation %) (Abutilon [13]; [28]): 94.3%
Control effect (visual observation %) (Abutilon [13]; [29]): 54.0%
Control effect (visual observation %) (Abutilon [13]; [30]): 62.4%
Control effect (visual observation %) (Abutilon [13]; [31]): 93.8%
Control effect (visual observation %) (Abutilon [13]; [32]): 100%
Control effect (visual observation %) (Abutilon [13]; [33]): 38.6%
Control effect (visual observation %) (Abutilon [13]; [34]): 57.3%
Control effect (visual observation %) (Abutilon [13]; [35]): 100%
Control effect (visual observation %) (Abutilon [13]; [36]): 100%
Control effect (visual observation %) (Echinochloacrusgalli; [25]): 16.6%
Control effect (visual observation %) (Echinochloacrusgalli; [26]): 18.0%
Control effect (visual observation %) (Echinochloacrusgalli; [27]): 31.0%
Control effect (visual observation %) (Echinochloacrusgalli; [28]): 34.3%
Control effect (visual observation %) (Echinochloacrusgalli; [29]): 18.4%
Control effect (visual observation %) (Echinochloacrusgalli; [30]): 19.8%
Control effect (visual observation %) (Echinochloacrusgalli; [31]): 36.7%
Control effect (visual observation %) (Echinochloacrusgalli; [32]): 40.7%
Control effect (visual observation %) (Echinochloacrusgalli; [33]): 20.9%
Control effect (visual observation %) (Echinochloacrusgalli; [34]): 43.2%
Control effect (visual observation %) (Echinochloacrusgalli; [35]): 32.9%
Control effect (visual observation %) (Echinochloacrusgalli; [36]): 42.5%

CCc1cccc(C)c1N(C(=O)CCl)[C@@H](C)COC [S-metolachlor]
Measured value E (Bristlegrass [2]; Table 2, dose 90 ga.i./hm^2): 35%
Measured value E (Bristlegrass [2]; Table 2, dose 135 ga.i./hm^2): 60%
Measured value E (Lambsquarters [3]; Table 2, dose 90 ga.i./hm^2): 45%
Measured value E (Lambsquarters [3]; Table 2, dose 135 ga.i./hm^2): 65%
Control effect, Amaranthusretroflexus (Amaranthusretroflexus [14]): 75
Control effect, Bristlegrass (Bristlegrass [15]): 60
Control effect, Crabgrass (Crabgrass): 70
Control effect, Lambsquarters (Lambsquarters [16]): 50

CCc1cccc(C)c1N(C(=O)CCl)C(C)COC (stereo not shown) [metolachlor]
Measured value E (Bristlegrass [2]; Table 2, dose 90 ga.i./hm^2): 40%
Measured value E (Bristlegrass [2]; Table 2, dose 135 ga.i./hm^2): 60%
Measured value E (Lambsquarters [3]; Table 2, dose 90 ga.i./hm^2): 50%
Measured value E (Lambsquarters [3]; Table 2, dose 135 ga.i./hm^2): 55%
Control effect, Amaranthusretroflexus (Amaranthusretroflexus [14]): 60
Control effect, Bristlegrass (Bristlegrass [15]): 45
Control effect, Crabgrass (Crabgrass): 60
Control effect, Lambsquarters (Lambsquarters [16]): 50

COC[C@H](C)N(C(=O)CCl)c1c(C)csc1C [Dimethoxamid-P]
Measured value E (Bristlegrass [2]; Table 1, dose 75 ga.i./hm^2): 30%
Measured value E (Bristlegrass [2]; Table 1, dose 150 ga.i./hm^2): 55%
Measured value E (Lambsquarters [3]; Table 1, dose 75 ga.i./hm^2): 35%
Measured value E (Lambsquarters [3]; Table 1, dose 150 ga.i./hm^2): 50%
Control effect, Amaranthusretroflexus (Amaranthusretroflexus [14]): 80
Control effect, Bristlegrass (Bristlegrass [15]): 55
Control effect, Crabgrass (Crabgrass): 70
Control effect, Lambsquarters (Lambsquarters [16]): 75

COCC(C)N(C(=O)CCl)c1c(C)csc1C (stereo not shown) [Dimethoxamide]
Measured value E (Bristlegrass [2]; Table 1, dose 75 ga.i./hm^2): 25%
Measured value E (Bristlegrass [2]; Table 1, dose 150 ga.i./hm^2): 40%
Measured value E (Lambsquarters [3]; Table 1, dose 75 ga.i./hm^2): 20%
Measured value E (Lambsquarters [3]; Table 1, dose 150 ga.i./hm^2): 35%
Control effect, Amaranthusretroflexus (Amaranthusretroflexus [14]): 55
Control effect, Bristlegrass (Bristlegrass [15]): 50
Control effect, Crabgrass (Crabgrass): 70
Control effect, Lambsquarters (Lambsquarters [16]): 70
